From patent publication US12472223B2, “Methods for reducing symptoms of multiple sclerosis using a six-amino acid long peptide that inhibits CD40-CD154 interaction” (OP-T LLC, priority 2019, dated 2025)

Assays:
CD4+ and CD8+ cells = assay: CD4/CD8 ratio in blood of peptide-treated NOD mice (flow cytometry); format: in vivo, mouse
Procedure: (§1) Peptides were designed based on the amino acid sequence of mouse CD154 protein (SEQ ID NO:1) in the SwissPro database. These pre-designed peptides were then ordered from as made-to-order by New England Peptide. The lyophilized peptides were suspended in phosphate buffered saline at 1 mg/ml. 100 μg of a particular peptide was then injected into the tail vein of 8-9 week old NOD mice. Control mice received 100 μl of phosphate buffered saline. This is well before the onset of diabetes, but after damage to pancreatic islets has begun. Three days after the initial injection, another 100 μg of peptide (or 100 μl of phosphate buffered saline in the case of the Control mice) was injected into the tail vein. Mice were then injected with peptide (or phosphate buffered saline) on a weekly basis. At 10 weeks of age, mice were monitored for diabetes, as indicated by a blood glucose level greater than 250 mg/dL for three consecutive days. During this time, blood was also taken from the tail vein, or by sub-mandibular venal puncture, and the level of CD4+ and CD8+ cells determined by flow cytometry using antibodies for CD4 protein and CD8 protein.

NOD mice = assay: Development of diabetes in NOD mice treated with CD154 peptides; format: in vivo, mouse; details: 100 μg peptide into tail vein of 8-9 week old NOD mice, again after 3 days, then weekly; diabetes = blood glucose >250 mg/dL for three consecutive days
Procedure: as §1

EAE induced C57BL/6 mice = assay: EAE disease score in MOG35-55 induced C57BL/6 mice; format: in vivo, mouse
Text: One group of mice-C57BL/6 mice from Taconic (Hudson, NY, USA) received KGYY6 (SEQ ID NO: 29) intravenous (IV) injections 3 days and 1 day prior to EAE induction, while another control group received a vehicle of phosphate buffered saline (PBS). EAE was then induced and the mice started to show symptoms on day 10, which is standard for these mice under these conditions. This is further depicted in FIG. 11. On days 13, 20, and 27, the KGYY6 group of mice receive a boost of peptide, while the other group again received PBS via IV injection. […] By day 13, there was a statistically significant difference that lasted throughout the experiment. In FIG. 11—*—asterisks—denote p-value: *—one asterisk is <0.05; **—two asterisks is <0.01; […] is <0.001; and ****—four asterisks is <0.0001. This is a two-way ANOVA with Sidak's multiple comparisons test. Arrows in above lines in FIG. 11 represent days −3, −1, 13, 20, and 27, which correspond to days on which the mice received the KGYY6. Mice were disease scored daily in this study as described in more detail below.
The EAE mouse model can be highly variable even when attempting to control all possible parameters. This variability in EAE may be due to seasonal variations as well as litter differences in the mice. In order to minimize litter-to-litter and seasonal variations, experiments and studies were performed that had 10 mice per group and the mice were randomly mixed once they arrived from the vendor. Female 10-12 week old C57BL/6 mice were immunized subcutaneously on the upper back/neck with 100 μl completely emulsified MOG35-55 peptide (50 μg in 50 μl PBS) and complete Freund's adjuvant (CFA; 75 μg M. Tuberculosis H37 RA (Becton Dickinson and Company (Franklin Lake, NJ, USA)) in 50 μl incomplete Freund's adjuvant (mineral oil)), followed by i.p. pertussis toxin (PT; 200 ng (Sigma-Aldrich® (St. Louis, MO, USA)) in 100 μl PBS) injections. Mice were then randomly assigned to a treatment cohort or vehicle control cohort. One cohort of mice received intravenous injections of the KGYY6 (SEQ ID NO: 29)—25 μg in 100 μl PBS per mouse on days −3, −1, 13, 20, and 27 as described above. Day 0 is the reference starting point for EAE induction. Another cohort received peptide on days −3, −1, 6, 11, 13, and 15. Vehicle control mice received injections of PBS.
All mice were monitored daily for disease and scored in the following manner: 0—no abnormalities; 0.5—clutching hind limbs; 1—limp tail or weak hind limbs and/or wobbly gait; 1.5—limp tail and clutching hind limbs; 2—limp tail and weak hind limbs and/or wobbly gait wherein the mouse supports itself and propels itself using hind limbs; 2.5—limp tail and weak hind limbs and/or wobbly gait wherein the mouse cannot support and propel itself using hind limbs, but the paws are moving. 3—limp tail and one weak hind limb, while the other hind limb is completely paralyzed wherein the mouse uses the weak hind limb to propel itself in some fashion. […] 5—complete paralysis of hind quarter and weak forelimb(s). The data are reported as the mean daily clinical score for all animals in each group. Mice reaching a level 5 or losing more than 20% of their bodyweight are euthanized.
For this study, a group of EAE induced mice were treated with KGYY6 via intravenous (IV) injections on days 11, 13, and 15. Another group of mice were pretreated on days −3 and −1, and received further treatments on days 6, 11, 13, and 15. […]

CD69 = CD69 expression on T cells from dLN and spleen of KGYY6 treated EAE mice; format: in vivo, mouse; details: for number of Th40 cells expressing CD69: after 33 days
Procedure: In this study, the number of CD69 expressing cells were measured and determined in draining lymph nodes (dLN) and spleens harvested from EAE mice at the end of the studies as described in Examples 7, 8, and 9 and the administration of KGYY6, after 33 days.
Lymphocytes from dLN or spleen were stained and gated on the Th40 or conventional CD4 T cells then CD69 expression was analyzed.

CD62L = CD62L expressing T cells from dLN and spleen of KGYY6 treated EAE mice; format: in vivo, mouse; details: Th40 and conventional CD4 T cells, versus PBS
Text: L-selectins are expressed on T cells and, depending upon activation status, expression rapidly cycles between high and low levels, thus allowing cells to crawl to areas of inflammation, and to extravasate into the tissue. (Mao-Draayer, Y., et al., Clinical Immunol. 175:10-5, 2017; Butcher, E. C., et al., Science, 272 (5258): 60-6, 1997). CD62L is an L-selectin that has generally been associated with naïve T cells, given its importance in lymph node retention. (Chao, C. C., et al., J. Immunol., 159:1686, 1997; Tedder, T. F., et al., Behring Inst. Mitt., 92:165, 1993). Rather than considering CD62L as a biomarker for naïve T cells, it may be possible that CD62L may be involved in lymph node retention of potentially pathogenic effector cells. The number of CD62L expressing Th40 and conventional CD4 T cells from both spleens and dLN of KGYY6 treated mice were compared to mice treated with vehicle (PBS) only (the control).

intracellular cytokines = assay: Intracellular cytokine expression in Th40 and conventional CD4 T cells ex vivo from KGYY6 treated EAE mice; set-up: species or system mouse
Procedure: Intracellular cytokine expression profiles in Th40 and conventional CD4 T cells were examined immediately ex-vivo after 33 days and at the end of the study as described in Example 7.
Other cytokines, such as TNFα, IFNγ, IL-2, and IL-17A were unchanged in response to KGYY6 treatment in both cell types. […] Lymphocytes from dLN or spleen were stained and gated on the Th40 or conventional CD4 T cells then intracellular levels were analyzed. FIGS. 18A-D represent the Th40 cells from spleen. FIGS. 19A-D represent the Th40 cells from dLN. FIGS. 20A-D represent conventional CD4 T cells from the spleen. FIGS. 21A-D represent conventional CD4 T cells from dLN.

[1] = tested on: Th40 or conventional CD4 T cells; assay: Memory cell and Th40 cell levels in KGYY6 treated EAE mice; format: in vivo, mouse
Procedure: This study sought to determine whether treatment with KGYY6 had any effect on memory cell levels when administered as described in Example 7 above.
C57BL/6 mice were EAE induced then lymphocytes were stained and gated on Th40 or conventional CD4 T cells and effector and central memory cell levels analyzed in dLN (FIGS. 22A-22D) and spleen (FIGS. 23A-D). Significance was calculated by t-test.

CD40 = assay: FITC-conjugated KGYY6 staining of PBMC, dLN and splenic lymphocytes; format: binding, mouse
Text: To confirm that KGYY6 binds to the intended target cells, peripheral blood was […], dLN lymphocytes, and splenic lymphocytes from mice at 6 and 13 days out from receiving the full EAE regimen. These cells were then stained with an FITC-conjugated KGYY6.
To confirm that the KGYY6 peptide binds specifically to CD40, PBMC was stained from C57BL/6 mice that have the CD154-interacting domain of CD40 knocked out (B6.CD40KO).
FIG. 24A is a dot plot of PBMC, dLN, and splenic lymphocytes that were harvested and then stained. […] CD40 with heat-mapping for KGYY6. Dot plots on the right are CD62L v. CD44 with heat-mapping for KGYY6. […] The results shown in FIG. 24A are from 6 days post EAE induction. FIG. 24B is a histogram depicting KGYY6 staining of B6.CD40KO, control, non-induced C57BL/6, and EAE-induced C57BL/6 mice, 6 and 13 days post induction. Data represents two mice at day 6, three mice at day 13, all with similar results.

[2] = Th40 and conventional CD4 T cells, dLN and spleen
[3] = spleen and dLN, Th40 or conventional CD4 T cells

CSCC[C@H](NC(=O)[C@@H](NC(=O)[C@H](Cc1ccc(O)cc1)NC(=O)[C@H](Cc1ccc(O)cc1)NC(=O)CNC(=O)[C@H](CCCCN)NC(=O)[C@H](CCCCN)NC(=O)[C@H](C)NC(=O)[C@H](Cc1c[nH]c2ccccc12)NC(=O)[C@H](CCC(N)=O)NC(=O)[C@H](CC(C)C)NC(=O)[C@@H](N)C(C)C)[C@@H](C)O)C(=O)N[C@@H](CCCCN)C(=O)N[C@@H](CO)C(=O)N[C@@H](CC(N)=O)C(=O)O [15-mer peptide, VLQWAKKGYYTMKSN]
compromise of the immune system as determined by the CD4/CD8 ratio (CD4+ and CD8+ cells): did not result in compromise of the immune system

WAKKGYYTMK [10-mer]
development of diabetes in NOD mice (NOD mice): significant effects on the development of diabetes

KGYY (listed as Mus musculus)
EAE scores (EAE induced C57BL/6 mice; 4-mer administered prior to onset and then post onset, versus untreated mice): lower EAE scores compared to untreated mice

AKKGYY [KGYY6, 6-amino acid core region of the 15-mer]
development of diabetes in NOD mice (NOD mice): significant effects on the development of diabetes
EAE disease course (EAE induced C57BL/6 mice; 25 μg IV on days -3, -1, 13, 20, 27, versus PBS control): significantly less severe
EAE disease course (EAE induced C57BL/6 mice; pretreated days -3, -1, further treatments days 6, 11, 13, 15, versus control): significantly less severe disease course
EAE disease severity, early versus later boosts (EAE induced C57BL/6 mice; pretreated, boosts from day 6 versus from day 13): overall less severe disease if the boosts started early
EAE disease course (EAE induced C57BL/6 mice; treat-at-symptom group, IV on days 11, 13, 15): less severe disease course compared to control
CD69 expressed per cell (CD69; Th40 cells from spleen, versus vehicle): significantly more CD69 per cell
CD69 expressed per cell (CD69; conventional CD4 T cells): did no change the amount of CD69 per cell
number of conventional CD4 T cells expressing CD69 (CD69; dLN and spleen, versus controls): increased by KGYY6 treatment
number of Th40 cells expressing CD69 (CD69; dLN, versus vehicle): increased
number of Th40 cells expressing CD69 (CD69; spleen, versus untreated): significantly greater number
number of CD62L expressing cells (CD62L): no difference in number of CD62L expressing cells
IFNγ (intracellular cytokines; [2]): unchanged
IL-2 (intracellular cytokines; [2]): unchanged
IL-17A (intracellular cytokines; [2]): unchanged
TNFα (intracellular cytokines; [2]): unchanged
intracellular IL-10 (intracellular cytokines; Th40 cells, dLN or spleen): no difference in intracellular IL-10 expression
intracellular IL-10 (intracellular cytokines; conventional CD4 T cells from dLN, day 33): increase in intracellular IL-10
Th40 cell population ([1]; EAE mice treated with KGYY6): did not cause a decrease in the Th40 cell population
CD44+CD62L+ (central memory) cell levels [1, 3]: no difference in the levels of those memory phenotypes
CD44+CD62L- (effector memory) cell levels [1, 3]: no difference in the levels of those memory phenotypes
staining of memory cells (CD62L versus CD44) (CD40; PBMC and spleen samples): stained primarily effector (CD44^+CD62L^−) and central memory (CD44^+CD62L^+) cells
staining of B6.CD40KO cells (CD40; PBMC, CD154-interacting domain of CD40 knocked out): did not stain the B6.CD40KO cells
staining of CD40- cells (CD40; PBMC, dLN, spleen): not the CD40^− cells
staining of CD4+CD40+ cells (CD40; PBMC, dLN, spleen, 6 and 13 days post EAE induction): stained the CD4^+CD40^+ cells
staining of memory cells (CD62L versus CD44) (CD40; dLN samples): more diffuse pattern in dLN samples
staining of C57BL/6 PBMC (CD40; non-induced and EAE-induced C57BL/6 mice): readily stained both the non-induced and EAE-induced C57BL/6 mice
